Data as given in patent publication US8710071B2, “Compounds, compositions and methods for reducing lipid levels” (CVI Pharmaceuticals Limited, priority 2008, dated 2014).
“Also recorded” adds a separate entry of the source.

How the values were obtained:
LDLR mRNA [1] = test: LDLR mRNA expression in HepG2 cells, semi-quantitative RT-PCR; format: cell-based, human; settings: indicated doses, 8 hours, semi-quantitative RT-PCR (FIG. 3)
Description: HepG2 cells obtained from American Tissue Culture Collection (Manassas, Va., USA) were seeded in 6-well culture plates at a density of 0.8×10^6 cells/well cultured in EMEM containing 0.5% FBS and were treated with each purified compound at indicated doses for 8 hours. Total RNA was isolated, and 2 μg per sample was reverse transcribed with random primers using M-MLV (Promega) at 37° C. for 1 hour. PCR was carried out at 94° C. for 30 sec, 60° C. for 30 sec, and 72° C. for 30 sec with initial activation of the enzyme at 94° C. for 1 minute. Thirty cycles were performed for LDLR and GAPDH. PCR was performed using primers HLDLR-up and HLDLR-lo for LDLR and primers HGAPDH-up and HGAPDH-lo for GAPDH. The PCR products were separated on a 1% agarose gel and the band intensity was quantitated. LDLR mRNA levels were corrected by measuring GAPDH mRNA levels.
Specific stereochemical requirements of +1-THP in the upregulation of LDLR mRNA expression were determined by a similar experiment. HepG2 cells were treated with the pure 14R-(+)-THP or the pure 14S-(−)-THP at the indicated concentrations for 24 hours. The levels of LDLR mRNA and GAPDH mRNA in untreated and the compound-treated HepG2 cells were assessed by semi-quantitative RT-PCR.

HepG2 cells = test: DiI-LDL uptake (LDLR ligand uptake activity) in HepG2 cells; format: cell-based, human; settings: for Activity on DiI-LDL uptake: 20 hours; for Activity in LDL uptake at 40 uM (relative to control): 20 hours (second symbol of the cell); for Activity in LDL uptake at 10 uM (relative to control): 20 hours (first symbol of the cell)
Description: HepG2 cells (2×10^5 cells/well) in 24-well culture plates were treated with various compounds at indicated concentrations for 20 hours. The fluorescent 1.1′-dioctadecyl-3,3,3′,3′-tetramethylindocarbocyanin perchlorate (DiI-LDL) (Biomedical Technologies, Stoughton, Mass.) at a concentration of 2 μg/mL was added to cells at the end of treatment. After 4 hours, the medium was removed, cells were washed with cold PBS, and were examined immediately under a fluorescent microscope (Nikon) at 200× amplification. The fluorescent intensity in compound-treated cells was compared to that in untreated control cells. […] In these experiments berberine chloride was used for comparison.
The combined beneficial effects of these novel compounds on elevation of LDLR mRNA levels likely through the mechanism of mRNA stabilization and their inhibitory activity towards PCSK9, the secreted protease that degrades LDLR protein, result in strong increases in LDL ligand uptake activity through increased receptor surface abundance. […] Briefly, HepG2 cells (2×10^5 cells/well) in 24-well culture plates were treated with various compounds at 10 and 40 uM concentrations for 20 hours. The fluorescent 1.1′-dioctadecyl-3,3,3′,3′-tetramethylindocarbocyanin perchlorate (DiI-LDL) (Biomedical Technologies, Stoughton, Mass.) at a concentration of 2 μg/ml was added to cells at the end of treatment. After 4 hours, the medium was removed; cells were washed with cold PBS, and were examined immediately under a fluorescent microscope (Nikon) at 200× amplification. The fluorescent intensity in compound-treated cells was compared to that in untreated control cells. […]

ERK = ERK activation in HepG2 cells, Western blot with anti-phosphorylated ERK; format: cell-based, human; settings: 20 μg/mL, 0.5, 2, or 8 hours (FIG. 5)
Description: HepG2 cells cultured in 60-mm dishes were treated with various compounds at a concentration of 15 μg/ml for 2 hours. Total cell lysate was isolated and 50 μg of protein was separated on SDS-PAGE and transferred to nitrocellulose membrane.
HepG2 cells were treated with 20 μg/mL 14R,13S-(+)-CRDL and 14R-(+)-THP respectively for 0.5, 2, or 8 hours. Cells were then lysed. After protein quantitation using the BCA™ protein assay reagent (PIERCE), 50 μg protein from each sample was subjected to SDS-PAGE, followed by Western blotting using anti-phosphorylated ERK (Cell Signaling) and subsequently reprobed with antibody against β-actin.

[2] = test system: acetyl coenzyme A carboxylase (ACC); test: ACC phosphorylation in HepG2 cells, Western blot; format: cell-based, human; settings: 20 μg/ml, 0.5, 2, or 8 hours (FIG. 6)
Description: HepG2 cells were treated with 20 μg/ml14R-(+)-THP for 0.5, 2, or 8 hours. Cells were lysed, and 50 μg protein from each sample was subjected to SDS-PAGE, followed by Western blotting using anti-phosphorylated ACC (Cell Signaling) and subsequently reprobed with antibody against β-actin.
Cells were harvested after 1, 2, and 3 days treatment and western blot analysis was conducted using antibodies directed to LDLR and PCSK9. Chicken anti-LDLR was purchased from Abeam, the mouse anti-PCSK9 was purchased from Cayman Chemicals, and anti-pACC was purchased from Cell Signaling.

hyperlipidemic rabbits = test: Lipid lowering effects and blood chemistry in hyperlipidemic rabbits; settings: day 14, doses increased after day 7 to 60 mg/kg (128(+)/128(−)) and 10 mg/kg (SMV/ATV), mean ± SD
Description: Forty-two male Japanese rabbits were fed the cholesterol enriched rabbit diet for two weeks to induce hypercholesterolemia. […] Serum samples were collected at day 0 (before the drug treatment) and day 7. […] All tested animals were sacrified at the end of a total of 14 days treatment and serum samples were analyzed for TC, LDL-C, TG, and HDL-C. In addition to lipid profiles, a number of biochemical parameters were also analyzed to aseesee the effects of drug treatments on liver function, muscle function, kidney function, and heart function.

[3] = test system: Wister male rats under a high fat and high cholesterol diet; test: Lipid lowering effects of (14R,13S)-CRDL hydrochloride salt in Wister rats; format: in vivo, rat; settings: 75 mg/kg daily orally
Description: Male Wister rats were used as an animal model to examine the in vivo effects of (14R,13S)—CRDL in plasma lipid levels.
In one experiment, 18 Wister male rats under a high fat and high cholesterol diet were divided into 2 groups. One group was given (14R,13S)—CRDL hydrochloride salt orally at a daily dose of 75 mg/kg by an orogastric tube for 4 weeks, and the control group received daily treatment of equal amount of vehicle (0.1 M sodium phosphate, pH 3.5). Serum lipid levels were measured weekly.
At the end of treatment, Rats were sacrificed and blood and sera were collected to measure several critical parameters for liver function and kidney function. […] Kidney function and blood glucose level were not changed by the treatment.

LDLR mRNA [4] = test: LDLR mRNA expression in HepG2 cells, quantitative real-time RT-PCR; format: cell-based, human; settings: Homo sapiens, 24 hours, mean ± s.d.; for fold induction at 10 µM: read-out: Activity on LDLR mRNA at 10 uM (fold of control); for fold induction at 40 µM: read-out: Activity on LDLR mRNA at 40 uM (fold of control)
Description: Activities of some compounds of Formulas I, II, III, and IV on LDLR mRNA expression were determined. HepG2 cells were treated with new compounds individually at a dose less than or equal to 10 μM for 24 hours. Total RNA was harvested for quantitative real-time RT-PCR analysis using the method described in Example 16B. […] In these experiments, berberine chloride was included for comparison.
The time-dependent effects of compounds of Formula I, II, III, and IV on the upregulation of LDLR mRNA and the inhibition of PCSK9 mRNA expression were examined (Horton J D, Cohen J C, Hobbs H I T. “Molecular biology of PCSK9: its role in LDL metabolism” TRENDS in Biochemical Sciences 2007; 32:71-77). HepG2 cells were treated with new compounds individually at 20 uM dose for 1 day, 2 day, and 3 days. Total RNA was isolated and 2 μg was used to generate cDNA in a reaction containing random primers and M-MLV at 37° C. for 1 hour in a volume of 25 μl. Real-time PCR was performed on the cDNA using MCEP REALPLEX 2 SYSTEM (Eppendorf) and Universal MasterMix (Applied Biosystems). Human LDLR, PCSK9, and GAPDH Pre-Developed TaqMan Assay Reagents (Applied Biosystems) were used to assess the levels of mRNA expressions in HepG2. The levels of LDLR mRNA or PCSK9 mRNA were normalized to that of GAPDH. Each RNA samples was assayed in triplicate. The abundance of LDLR mRNA or PCSK9 mRNA in untreated cells was defined as 1, and the amounts of LDLR mRNA or PCSK9 from compound-treated cells were plotted relative to that value (FIG. 10). The data shown are mean±s.d.
Total RNA was harvested for quantitative real-time RT-PCR analysis using method described in Examples 16B.
The effects of 23 compounds on the mRNA expressions of LDLR and PCSK9 were examined using quantitative real-time RT-PCR assays. HepG2 cells were treated with various compounds at 10 and 40 uM concentrations for 24 hours. Total RNA was isolated and […] was used to generate cDNA in a reaction containing random primers and M-MLV at 37° C. for 1 h in a volume of 25 μl. Real-time PCR was performed on the cDNA using MCEP REALPLEX 2 SYSTEM (Eppendorf) and Universal MasterMix (Applied Biosystems). Human LDLR, PCSK9, and GAPDH Pre-Developed TaqMan Assay Reagents (Applied Biosystems) were used to assess the levels of mRNA expressions in HepG2. The levels of LDLR and PCSK9 mRNA were normalized to that of GAPDH. Each RNA samples was assayed in duplicate. The fold activity was calculated by dividing mRNA abundance in compound treated cells with that of control.

With `COc1cc2c(cc1OC)[C@H]1[C@@H](C)c3ccc(OC)c(OC)c3CN1CC2` [14R,13S-(+)-CRDL, 14R,13S-(+)-corydaline] the “LDLR mRNA expression” value (LDLR mRNA [1]) was “potent and dose-dependent effects”, the “Activity on DiI-LDL uptake” value (HepG2 cells; B: compound dose ≦ 40 μM) was “++” and the “activation of ERK” value (ERK) was “activation of ERK”.
For `COc1cc2c(cc1O)CCN1Cc3c(ccc(OC)c3OC)CC21` (stereo not drawn) [14R-(+)-CRPM, 14R-(+)-corypalmine], the “LDLR mRNA expression” value (LDLR mRNA [1]) was “potent and dose-dependent effects” and the “Activity on DiI-LDL uptake” value (HepG2 cells; A: compound dose ≦ 10 μM) was “++”.
With `COc1cc2c(cc1OC)[C@H]1Cc3ccc(OC)c(OC)c3CN1CC2` [14R-(+)-THP, 14R-(+)-tetrahydropalmatine] the ACC phosphorylation [2] was “induction of ACC phosphorylation”, the “LDLR mRNA expression” value (LDLR mRNA [1]) was “potent and dose-dependent effects” and the “Activity on DiI-LDL uptake” value (HepG2 cells; B: compound dose ≦ 40 μM) was “++”. The “activation of ERK” value (ERK) was “activation of ERK”.
For `CC(C)c1c(C(=O)Nc2ccccc2)c(-c2ccccc2)c(-c2ccc(F)cc2)n1CC[C@@H](O)C[C@@H](O)CC(=O)O` [ATV, atorvastatin, reference compound], the “serum total cholesterol levels, treatment day 14” value (hyperlipidemic rabbits) was 33.9 ± 6.5.
For `COc1cc2c(cc1OC)[C@H]1[C@@H](C)c3ccc(OC)c(OC)c3CN1CC2` [CRDL, corydaline], the “serum levels of AST and ALT (liver function)” value ([3]; end of 4-week treatment, versus control group, 75 mg/kg) was “liver function was not damaged; also recorded: statistically lower” and the adverse effects ([3]; entire 4-week treatment) was “No any adverse effects were observed”.
In the case of `COc1ccc2c(c1)CCN1Cc3c(ccc(OC)c3OS(=O)(=O)c3ccccc3)CC21` (stereo not drawn) [Compound 115, 3,10-Dimethoxy-5,6,7,8,13,13a-hexahydroisoquinolino[2,1-b]isoquinolin-9-yl benzenesulfonate], the “Activity in LDL uptake at 40 uM (relative to control)” value (HepG2 cells) is reported as “+++”, the fold induction at 10 µM (LDLR mRNA [4]) is reported as 0.51 ± 0.11 and the fold induction at 40 µM (LDLR mRNA [4]) is reported as 2.65 ± 0.06.
`COc1ccc2c(c1OS(=O)(=O)c1ccccc1)CN1CCc3cc4c(cc3C1C2)OCCO4` (stereo not drawn) [Compound 116, 11-Methoxy-6,7,8,9,14,14a-hexahydro-2H,3H-1,4-dioxano[5,6-g]isoquinoluio[3,2-a]isoquinolin-10-yl benzenesulfonate] gave a fold induction at 10 µM (LDLR mRNA [4]) of 1.41 ± 0.04 and a fold induction at 40 µM (LDLR mRNA [4]) of 7.19 ± 1.29.
For `COc1ccc2c(c1OS(=O)(=O)c1ccccc1)CN1CCc3cc(C)ccc3C1C2` (stereo not drawn) [Compound 121, 10-Methoxy-3-methyl-5,6,7,8,13,13a-hexahydroisoquinolino[2,1-b]isoquinofin-9-yl benzenesulfonate], the “Activity in LDL uptake at 10 uM (relative to control)” value (HepG2 cells) was “+++” and the “Activity in LDL uptake at 40 uM (relative to control)” value (HepG2 cells) was “+”.
With `COc1cc2c(cc1C(=O)NCCO)C1Cc3ccc(OC)c(OS(=O)(=O)c4ccccc4)c3CN1CC2` (stereo not drawn) [Compound 137, 2-[N-(2-hydroxyethyl)carbamoyl]-3,10-dimethoxy-5,6,7,8,13,13a-hexahydroisoquinolino[2,1-b]isoquinolin-9-yl benzenesulfonate] the “Activity in LDL uptake at 10 uM (relative to control)” value (HepG2 cells) was “+” and the “Activity in LDL uptake at 40 uM (relative to control)” value (HepG2 cells) was “+++”.
In the case of `COc1cc2c(cc1OCCO)CCN1Cc3c(ccc(OC)c3OS(=O)(=O)c3ccccc3)CC21` (stereo not drawn) [Compound 138, 3-(2-Hydroxyethoxy)-2,10-dimethoxy-5,6,7,8,13,13a-hexahydroisoquinolino[2,1-b]isoquinolin-9-yl benzenesulfonate], the “Activity in LDL uptake at 10 uM (relative to control)” value (HepG2 cells) is reported as “+” and the “Activity in LDL uptake at 40 uM (relative to control)” value (HepG2 cells) is reported as “+++”.
With `CCC(C)(C)C(=O)O[C@H]1C[C@@H](C)C=C2C=C[C@H](C)[C@H](CC[C@@H]3C[C@@H](O)CC(=O)O3)[C@H]21` [SMV, simvastatin, reference compound] the “serum total cholesterol levels, treatment day 14” value (hyperlipidemic rabbits) was 26.2 ± 5.5.
